Test [1] deals with S. epidermidis S2400-1 biofilm. The experiment in a line: Biofilm prevention, BisEDT-antibiotic combinations. Format: cell-based, Staphylococcus epidermidis. To be noted: for Δ (0.05 BE), biofilm prevention: 0.05 μg/ml BisEDT. The procedure:
(§1) S. epidermidis grown in TSB+2% glucose in polystyrene plates for 48 h at 37° C. Gatifloxacin (GF), clindamycin (CM), minocycline (MC), gentamicin (GM), vancomycin (VM), cefazolin (CZ), nafcillin (NC), and rifampicin (RP). […]

The subject of a further test is S. epidermidis biofilm. The experiment in a line: Biofilm prevention concentration (BPC), BisEDT and antibiotics. To be noted: for Fold reduction of BPC in presence of subMIC BisEDT: TSB + 2% glucose, 48 h. Type of test: cell-based, Staphylococcus epidermidis. The procedure:
as §1

Another test relates to S. epidermidis. The experiment in a line: Broth dilution MIC/MBC, BT-antibiotic combinations. Type of test: cell-based, Staphylococcus epidermidis. To be noted: for Δ (0.1 BE), MBC: 0.1 μg/ml BisEDT. How it is done:
Materials & Methods. Susceptibility studies were performed by broth dilution in 96-well tissue culture plates (Nalge Nunc International, Denmark) in accordance with NCCLS protocols (National Committee for Clinical Laboratory Standards. (1997). Methods for Dilution Antimicrobial Susceptibility Tests for Bacteria that Grow Aerobically: Approved Standard M7-A2 and Informational Supplement M100-S10. NCCLS, Wayne, Pa., USA).
Briefly, overnight bacterial cultures were used to prepare 0.5 McFarland standard suspensions, which were further diluted 1:50 (˜2×10^6 cfu/mL) in cation-adjusted Mueller-Hinton broth medium (BBL, Cockeysville, Md., USA). BTs (prepared as described above) and antibiotics were added at incremental concentrations, keeping the final volume constant at 0.2 mL. Cultures were incubated for 24 h at 37° C. and turbidity was assessed by absorption at 630 nm using an ELISA plate reader (Biotek Instruments, Winooski, Vt., USA) according to the manufacturer's recommendations. […] Viable bacterial counts (cfu/mL) were determined by standard plating on nutrient agar.
The checkerboard method was used to assess the activity of antimicrobial combinations. The fractional inhibitory concentration index (FICI) and the fractional bactericidal concentration index (FBCI) were calculated, according to Eliopoulos et al. (Eliopoulos and Moellering, (1996) Antimicrobial combinations. In Antibiotics in Laboratory Medicine (Lorian, V., Ed.), pp. 330-96, Williams and Wilkins, Baltimore, Md., USA). Synergy was defined as an FICI or FBCI index of […], no interaction at >0.5-4 and antagonism at >4 (Odds, F C (2003) Synergy, antagonism, and what the chequerboard puts between them. Journal of Antimicrobial Chemotherapy 52:1). Synergy was also defined conventionally as ≧4-fold decrease in antibiotic concentration.
Background: Dilution methods test growth across graded concentrations, often in twofold steps.

Test [2] concerns MRSA clinical isolates biofilm. The experiment in a line: Biofilm-prevention concentration (BPC) in BHIG/X medium with subMIC BisEDT. Format: cell-based, Staphylococcus aureus. To be noted: 12 MRSA clinical isolates, mean ± SD. How it is done:
(§2) Broth dilution antimicrobial susceptibility studies were performed against 12 MRSA strains using several antibiotics combined with subMIC levels of BisEDT (Table 18). Both the biofilm-prevention concentration (BPC) and the minimum inhibitory concentration (MIC) were determined in a special biofilm culture medium (BHIG/X). […] These strains were already sensitive to vancomycin, but were made considerably moreso in the presence of subMIC BisEDT.

Test [3] concerns MRSA clinical isolates. The experiment in a line: Broth dilution MIC in BHIG/X medium with subMIC BisEDT. Type of test: cell-based, Staphylococcus aureus. To be noted: Staphylococcus aureus, MRSA, 12 MRSA clinical isolates, BHIG/X, mean ± SD. The procedure: as §2
In this particular study, the data indicated synergy between BisEDT and cefepime (FIC<0.5), with many of the isolates at the breakpoint for sensitivity.

Test [4] has as its system MRSA clinical isolates. To be noted: cited from earlier work; for MIC Standards, R (resistance): Standard MIC breakpoint for resistance; for MIC Standards, S (antibiotic sensitivity): Standard MIC breakpoint for sensitivity.
Test [5] deals with lawn of MRSA (Methicillin-resistant S. aureus). The experiment in a line: Antibiotic-soaked discs on bacterial lawn with and without BisEDT. Type of test: cell-based, Staphylococcus aureus. To be noted: antibiotic discs combined with BisEDT 0.05 μg/ml. How it is done: FIGS. 4A and 4B show the subinhibitory BisEDT reversing antibiotic-resistance to several antibiotics. Effects of antibiotics with and without BisEDT (0.05 μg/ml) on a lawn of MRSA (Methicillin-resistant S. aureus) is shown. […] [GM=gentamicin, CZ=cefazolin, FEP=cefepime, IPM=imipenim, SAM=ampicillin/sulbactam, LVX=levofloxacin.

Setting [6] is: S. epidermidis S2400-1, 0.05 μg/ml BisEDT.
Where [7] appears, read: S. epidermidis S2400-1, BisEDT 0 μg/ml.
The mark [8] stands for this setting: S. epidermidis S2400-1, BisEDT 0.0 μg/ml.
[9] abbreviates: S. epidermidis S2400-1, BisEDT 0.05 μg/ml.
The mark [10] stands for this setting: S. epidermidis S2400-1, BisEDT 0.1 μg/ml.

Where two headings read alike, the source gives them in different places.

For `CCC[C@@H]1C[C@@H](C(=O)N[C@@H]([C@H]2O[C@H](SC)[C@H](O)[C@@H](O)[C@H]2O)[C@H](C)Cl)N(C)C1` [Clindamycin, clindamycin], the “Δ (0.05 BE), biofilm prevention” value in test [1] amounted to 24.9. Further, the “Biofilm Prevention (antibiotic concentration)” value was determined as 1195 µg/mL in test [1] (BisEDT 0 μg/ml), 48 µg/mL in test [1] (BisEDT 0.05 μg/ml) and 12 µg/mL in test [1] (BisEDT 0.1 μg/ml). Moreover, the “Fold reduction of BPC in presence of subMIC BisEDT” value with S. epidermidis biofilm is 50 fold. Besides, the “Δ, MIC” value in the test on S. epidermidis (S. epidermidis ATCC 35984, 0.05 μg/ml BisEDT) amounted to 2. Further, the MIC with S. epidermidis (S. epidermidis ATCC 35984, BisEDT 0.0 μg/ml) is 2048.00 µg/mL; in the test with S. epidermidis (S. epidermidis ATCC 35984, BisEDT 0.05 μg/ml), 1024.00 µg/mL; with S. epidermidis (setting [7]), 2048 µg/mL; in the test with S. epidermidis (setting [9]), 768 µg/mL; in the test on S. epidermidis (setting [10]), 24 µg/mL. For the same molecule, the “Δ (0.05 BE), MIC” value in the test with S. epidermidis (setting [6]) was determined as 2.67. The “Δ (0.1 BE), MBC” value in the test with S. epidermidis (S. epidermidis S2400-1) was found to be 2.67. In addition, the minimal bactericidal concentration (MBC) in the test with S. epidermidis (setting [8]) was determined as 2048 µg/mL; in the test on S. epidermidis (setting [10]), 768 µg/mL.
Turning to `COc1c(N2CCNC(C)C2)c(F)cc2c(=O)c(C(=O)O)cn(C3CC3)c12` (stereo not shown) [Gatifloxacin, gatifloxacin], the BPC in test [2] (BisEDT 0 μg/mL) was found to be 3.6 ± 2.6 µg/mL; in test [2] (BisEDT 0.025 μg/mL) it was 2.6 ± 0.9 µg/mL; in test [2] (BisEDT 0.05 μg/mL) it was 2.4 ± 1.1 µg/mL; in test [2] (BisEDT 0.1 μg/mL), 0.9 ± 0.8 µg/mL. Besides, in test [1], the “Δ (0.05 BE), biofilm prevention” value stood at 16.0. Moreover, the “Biofilm Prevention (antibiotic concentration)” value in test [1] (BisEDT 0 μg/ml) stood at 1.6 µg/mL; in test [1] (BisEDT 0.05 μg/ml) it was 0.1 µg/mL; in test [1] (BisEDT 0.1 μg/ml), 0.1 µg/mL. Further, the MIC in the test on MRSA clinical isolates [3] (BisEDT 0 μg/mL, read-out: MIC) turned out to be 3.6 ± 2.6 µg/mL; in the test with MRSA clinical isolates [3] (BisEDT 0.025 μg/mL, read-out: MIC) it was 4 ± 2.8 µg/mL; with MRSA clinical isolates [3] (BisEDT 0.05 μg/mL, read-out: MIC), 4 ± 2.8 µg/mL; with MRSA clinical isolates [3] (BisEDT 0.1 μg/mL, read-out: MIC), 2.4 ± 1.1 µg/mL; with S. epidermidis (setting [7]), 1.7 µg/mL; in the test on S. epidermidis (setting [9]), 0.8 µg/mL. In the test on S. epidermidis (setting [10]), the MIC came out at 0.3 µg/mL. In the test on S. epidermidis biofilm, the “Fold reduction of BPC in presence of subMIC BisEDT” value was 10 fold. In addition, the “MIC Standards, R (resistance)” value in the test on MRSA clinical isolates [4] is reported as “≧8 μg/ml”. For the same molecule, in the test on MRSA clinical isolates [4], the “MIC Standards, S (antibiotic sensitivity)” value is recorded as “≦2 μg/ml”. Further, the “Δ (0.05 BE), MIC” value in the test with S. epidermidis (setting [6]) turned out to be 2.13. Moreover, the “Δ (0.1 BE), MBC” value with S. epidermidis (S. epidermidis S2400-1) is reported as 2.00. Also, the MBC with S. epidermidis (setting [8]) is 2.8 µg/mL; in the test on S. epidermidis (setting [10]), 1.4 µg/mL.
Turning to `CN[C@H](CC(C)C)C(=O)N[C@H]1C(=O)N[C@@H](CC(N)=O)C(=O)N[C@H]2C(=O)N[C@H]3C(=O)N[C@H](C(=O)N[C@H](C(=O)O)c4cc(O)cc(O)c4-c4cc3ccc4O)[C@H](O)c3ccc(c(Cl)c3)Oc3cc2cc(c3O[C@@H]2O[C@H](CO)[C@@H](O)[C@H](O)[C@H]2O[C@H]2C[C@](C)(N)[C@H](O)[C@H](C)O2)Oc2ccc(cc2Cl)[C@H]1O` [Vancomycin, vancomycin], the BPC in test [2] (BisEDT 0 μg/mL) came to 2.5 ± 1.7 µg/mL; in test [2] (BisEDT 0.025 μg/mL), 1.5 ± 0.6 µg/mL; in test [2] (BisEDT 0.05 μg/mL), 1.3 ± 0.5 µg/mL; in test [2] (BisEDT 0.1 μg/mL), 0.7 ± 0.4 µg/mL. The “Δ (0.05 BE), biofilm prevention” value in test [1] is listed as 3.6. Also, the results for the “Biofilm Prevention (antibiotic concentration)” value in test [1] (BisEDT 0 μg/ml), in test [1] (BisEDT 0.05 μg/ml) and in test [1] (BisEDT 0.1 μg/ml) were 3.2 µg/mL, 0.9 µg/mL and 0.1 µg/mL, respectively. Further, the MIC is 2.5 ± 1.7 µg/mL in the test with MRSA clinical isolates [3] (BisEDT 0 μg/mL); 2.5 ± 1.7 µg/mL in the test on MRSA clinical isolates [3] (BisEDT 0.025 μg/mL); 1.5 ± 0.6 µg/mL in the test with MRSA clinical isolates [3] (BisEDT 0.05 μg/mL); 1.3 ± 0.5 µg/mL in the test with MRSA clinical isolates [3] (BisEDT 0.1 μg/mL); 3.2 µg/mL in the test with S. epidermidis (setting [7]); 2.3 µg/mL in the test on S. epidermidis (setting [9]). In addition, in the test on S. epidermidis (setting [10]), the MIC came out at 0.3 µg/mL. In addition, the “Change of biofilm prevention concentration (BPC)” value with S. epidermidis biofilm (0.05 μg/ml BisEDT) is given as “modest decreases”. For the same molecule, the “MIC Standards, R (resistance)” value in the test on MRSA clinical isolates [4] is given as “≧32 μg/ml”. For the same molecule, in the test on MRSA clinical isolates [4], the “MIC Standards, S (antibiotic sensitivity)” value is “≦4 μg/ml”. Moreover, the “Synergy, MBC” value with S. epidermidis (S. epidermidis S2400-1) was “borderline”. Also, in the test on S. epidermidis (setting [6]), the “Δ (0.05 BE), MIC” value is 1.40. Further, the “Δ (0.1 BE), MBC” value in the test on S. epidermidis (S. epidermidis S2400-1) was found to be 3.86. For the same molecule, the MBC in the test on S. epidermidis (setting [8]) was determined as 5.4 µg/mL; with S. epidermidis (setting [10]), 1.4 µg/mL.
On to `Cc1cc(NS(=O)(=O)c2ccc(N)cc2)no1` [sulphamethoxazole], for which the “Antibiotic action on MRSA lawn with subMIC BisEDT” value in test [5] is recorded as “enhanced antibiotic action”.

For orientation: MIC means the lowest concentration found to suppress growth. In general, MBC refers to the smallest concentration meeting the test's criterion for killing.

The record behind these values is US9408393B2, “Bismuth-thiols as antiseptics for agricultural, industrial and other uses” (Microbion Corporation, priority 2010, dated 2016).
